Key:
Type in all cases: biochemical
ABL = ABL (Homo sapiens, UniProt P00519); experiment: Kinase selectivity, Table 5: ABL; settings: read-out: selectivity data (inhibition), ABL
AKT1 = AKT1 (Homo sapiens, UniProt P31749); experiment: Kinase selectivity, Table 5: AKT1; settings: read-out: selectivity data (inhibition), AKT1
AKT2 = AKT2 (Homo sapiens, UniProt P31751); experiment: Kinase selectivity, Table 5: AKT2; settings: read-out: selectivity data (inhibition), AKT2
BTK = BTK (Homo sapiens, UniProt Q06187); experiment: Kinase selectivity, Table 5: BTK; settings: read-out: selectivity data (inhibition), BTK
CDK2 = CDK2 (Homo sapiens, UniProt P24941); experiment: Kinase selectivity, Table 5: CDK2; settings: read-out: selectivity data (inhibition), CDK2
CHK1 = CHK1 (Homo sapiens, UniProt O14757); experiment: Kinase selectivity, Table 5: CHK1; settings: read-out: selectivity data (inhibition), CHK1
CK1δ = CK1δ (Homo sapiens, UniProt P48730); experiment: Kinase selectivity, Table 5: CK1δ; settings: read-out: selectivity data (inhibition), CK1δ
c-TAK1 = c-TAK1 (Homo sapiens, UniProt P27448); experiment: Kinase selectivity, Table 5: c-TAK1; settings: read-out: selectivity data (inhibition), c-TAK1
EGFR = EGFR (Homo sapiens, UniProt P00533); experiment: Kinase selectivity, Table 5: EGFR; settings: read-out: selectivity data (inhibition), EGFR
FGFR1 = FGFR1 (Homo sapiens, UniProt P11362); experiment: Kinase selectivity, Table 5: FGFR1; settings: read-out: selectivity data (inhibition), FGFR1
FLT3 = FLT3 (Homo sapiens, UniProt P36888); experiment: Kinase selectivity, Table 5: FLT3; settings: read-out: selectivity data (inhibition), FLT3
FLT3(D835Y) = FLT3(D835Y) (Homo sapiens, UniProt P36888, D835Y); experiment: Kinase selectivity, Table 5: FLT3(D835Y); settings: read-out: selectivity data (inhibition), FLT3(D835Y)
FYN = FYN (Homo sapiens, UniProt P06241); experiment: Kinase selectivity, Table 5: FYN; settings: read-out: selectivity data (inhibition), FYN
INSR = INSR (Homo sapiens, UniProt P06213); experiment: Kinase selectivity, Table 5: INSR; settings: read-out: selectivity data (inhibition), INSR
JNK2 = JNK2 (Homo sapiens, UniProt P45984); experiment: Kinase selectivity, Table 5: JNK2; settings: read-out: selectivity data (inhibition), JNK2
KDR = KDR (Homo sapiens, UniProt P35968); experiment: Kinase selectivity, Table 5: KDR; settings: read-out: selectivity data (inhibition), KDR
LCK = LCK (Homo sapiens, UniProt P06239); experiment: Kinase selectivity, Table 5: LCK; settings: read-out: selectivity data (inhibition), LCK
LYN = LYN (Homo sapiens, UniProt P07948); experiment: Kinase selectivity, Table 5: LYN; settings: read-out: selectivity data (inhibition), LYN
MAPKAPK2 = MAPKAPK2 (Homo sapiens, UniProt P49137); experiment: Kinase selectivity, Table 5: MAPKAPK2; settings: read-out: selectivity data (inhibition), MAPKAPK2
MARK1 = MARK1 (Homo sapiens, UniProt Q9P0L2); experiment: Kinase selectivity, Table 5: MARK1; settings: read-out: selectivity data (inhibition), MARK1
MET = MET (Homo sapiens, UniProt P08581); experiment: Kinase selectivity, Table 5: MET; settings: read-out: selectivity data (inhibition), MET
MSK1 = MSK1 (Homo sapiens, UniProt O75582); experiment: Kinase selectivity, Table 5: MSK1; settings: read-out: selectivity data (inhibition), MSK1
MST2 = MST2 (Homo sapiens, UniProt Q13188); experiment: Kinase selectivity, Table 5: MST2; settings: read-out: selectivity data (inhibition), MST2
PDGFRα = PDGFRα (Homo sapiens, UniProt P16234); experiment: Kinase selectivity, Table 5: PDGFRα; settings: read-out: selectivity data (inhibition), PDGFRα
PDK1 = PDK1 (Homo sapiens, UniProt O15530); experiment: Kinase selectivity, Table 5: PDK1; settings: read-out: selectivity data (inhibition), PDK1
PIM1 = PIM1 (Homo sapiens, UniProt P11309); experiment: Kinase selectivity, Table 5: PIM1; settings: read-out: selectivity data (inhibition), PIM1
PKA = PKA (Homo sapiens, UniProt P17612); experiment: Kinase selectivity, Table 5: PKA; settings: read-out: selectivity data (inhibition), PKA
PKD2 = PKD2 (Homo sapiens, UniProt Q9BZL6); experiment: Kinase selectivity, Table 5: PKD2; settings: read-out: selectivity data (inhibition), PKD2
PKGα = PKGα (Homo sapiens, UniProt Q13976); experiment: Kinase selectivity, Table 5: PKGα; settings: read-out: selectivity data (inhibition), PKGα
PLK1 = PLK1 (Homo sapiens, UniProt P53350); experiment: Kinase selectivity, Table 5: PLK1; settings: read-out: selectivity data (inhibition), PLK1
PRAK = PRAK (Homo sapiens, UniProt Q8IW41); experiment: Kinase selectivity, Table 5: PRAK; settings: read-out: selectivity data (inhibition), PRAK
ROCK2 = ROCK2 (Homo sapiens, UniProt O75116); experiment: Kinase selectivity, Table 5: ROCK2; settings: read-out: selectivity data (inhibition), ROCK2
RSK1 = RSK1 (Homo sapiens, UniProt Q15418); experiment: Kinase selectivity, Table 5: RSK1; settings: read-out: selectivity data (inhibition), RSK1
SYK = SYK (Homo sapiens, UniProt P43405); experiment: Kinase selectivity, Table 5: SYK; settings: read-out: selectivity data (inhibition), SYK

PDK1, sequence (O15530 whole entry): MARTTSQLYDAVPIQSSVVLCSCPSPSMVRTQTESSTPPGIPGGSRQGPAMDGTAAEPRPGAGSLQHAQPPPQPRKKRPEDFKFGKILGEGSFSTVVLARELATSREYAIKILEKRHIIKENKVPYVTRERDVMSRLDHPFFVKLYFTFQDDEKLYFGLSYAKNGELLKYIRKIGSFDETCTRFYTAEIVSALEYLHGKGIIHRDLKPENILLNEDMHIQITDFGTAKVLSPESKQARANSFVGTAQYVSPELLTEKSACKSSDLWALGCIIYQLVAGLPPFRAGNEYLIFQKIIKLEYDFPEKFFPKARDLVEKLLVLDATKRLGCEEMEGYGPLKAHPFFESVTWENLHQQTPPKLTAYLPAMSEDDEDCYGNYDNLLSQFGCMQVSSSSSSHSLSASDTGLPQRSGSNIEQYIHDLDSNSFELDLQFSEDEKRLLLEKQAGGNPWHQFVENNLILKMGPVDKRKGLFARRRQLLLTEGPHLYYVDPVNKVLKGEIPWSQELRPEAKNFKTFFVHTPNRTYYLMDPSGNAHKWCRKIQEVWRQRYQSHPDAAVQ
MARK1, sequence (Q9P0L2 whole entry, species assumed): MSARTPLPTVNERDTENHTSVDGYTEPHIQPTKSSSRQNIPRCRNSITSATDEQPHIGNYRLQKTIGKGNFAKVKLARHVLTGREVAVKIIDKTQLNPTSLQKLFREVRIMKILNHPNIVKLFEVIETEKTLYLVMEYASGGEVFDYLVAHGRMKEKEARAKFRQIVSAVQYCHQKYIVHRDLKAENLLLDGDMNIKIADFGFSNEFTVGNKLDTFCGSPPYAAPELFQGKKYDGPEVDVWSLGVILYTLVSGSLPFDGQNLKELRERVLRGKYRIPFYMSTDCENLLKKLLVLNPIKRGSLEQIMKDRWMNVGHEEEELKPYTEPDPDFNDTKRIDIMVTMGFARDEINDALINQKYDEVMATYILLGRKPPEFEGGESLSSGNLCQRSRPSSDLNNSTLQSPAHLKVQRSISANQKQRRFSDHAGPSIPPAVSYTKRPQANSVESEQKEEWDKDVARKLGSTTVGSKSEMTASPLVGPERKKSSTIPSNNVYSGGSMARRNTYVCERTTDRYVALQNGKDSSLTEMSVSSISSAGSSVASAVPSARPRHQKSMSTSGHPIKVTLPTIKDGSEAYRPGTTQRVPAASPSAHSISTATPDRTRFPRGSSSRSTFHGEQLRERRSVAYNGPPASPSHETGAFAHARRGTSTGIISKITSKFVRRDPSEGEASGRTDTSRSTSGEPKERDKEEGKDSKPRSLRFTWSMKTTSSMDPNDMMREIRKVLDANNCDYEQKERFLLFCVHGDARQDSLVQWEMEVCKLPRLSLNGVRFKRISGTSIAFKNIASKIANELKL
PRAK, sequence (Q8IW41 whole entry, species assumed): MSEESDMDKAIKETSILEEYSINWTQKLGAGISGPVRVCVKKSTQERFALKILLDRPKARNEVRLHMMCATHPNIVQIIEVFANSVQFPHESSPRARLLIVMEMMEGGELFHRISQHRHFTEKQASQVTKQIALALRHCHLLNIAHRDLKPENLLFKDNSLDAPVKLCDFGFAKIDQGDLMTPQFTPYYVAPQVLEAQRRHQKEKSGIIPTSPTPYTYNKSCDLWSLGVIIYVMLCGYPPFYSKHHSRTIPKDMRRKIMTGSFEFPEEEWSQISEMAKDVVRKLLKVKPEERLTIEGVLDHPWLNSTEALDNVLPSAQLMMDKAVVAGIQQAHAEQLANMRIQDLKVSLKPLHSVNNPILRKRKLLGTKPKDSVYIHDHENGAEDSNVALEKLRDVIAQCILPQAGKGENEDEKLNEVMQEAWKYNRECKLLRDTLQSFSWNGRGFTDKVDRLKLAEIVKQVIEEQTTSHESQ
BTK, sequence (Q06187 whole entry, species assumed): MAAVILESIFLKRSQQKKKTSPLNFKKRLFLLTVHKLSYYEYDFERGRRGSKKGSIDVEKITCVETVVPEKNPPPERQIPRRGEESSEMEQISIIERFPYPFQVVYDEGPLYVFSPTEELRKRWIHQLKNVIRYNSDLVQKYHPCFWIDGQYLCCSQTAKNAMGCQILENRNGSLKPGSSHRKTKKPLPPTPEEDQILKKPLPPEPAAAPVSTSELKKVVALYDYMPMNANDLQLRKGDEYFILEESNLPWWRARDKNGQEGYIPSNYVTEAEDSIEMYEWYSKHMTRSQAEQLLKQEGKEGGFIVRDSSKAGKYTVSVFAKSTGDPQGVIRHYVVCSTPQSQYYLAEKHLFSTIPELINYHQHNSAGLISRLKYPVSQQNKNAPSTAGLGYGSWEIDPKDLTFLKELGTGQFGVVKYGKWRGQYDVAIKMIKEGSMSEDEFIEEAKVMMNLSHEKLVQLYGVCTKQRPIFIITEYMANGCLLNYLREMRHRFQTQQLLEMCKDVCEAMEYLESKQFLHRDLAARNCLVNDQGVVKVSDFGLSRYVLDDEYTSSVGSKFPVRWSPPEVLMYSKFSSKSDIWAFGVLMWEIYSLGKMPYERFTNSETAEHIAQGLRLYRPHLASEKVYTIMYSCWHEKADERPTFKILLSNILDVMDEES
FGFR1, sequence (P11362 22-822, species assumed): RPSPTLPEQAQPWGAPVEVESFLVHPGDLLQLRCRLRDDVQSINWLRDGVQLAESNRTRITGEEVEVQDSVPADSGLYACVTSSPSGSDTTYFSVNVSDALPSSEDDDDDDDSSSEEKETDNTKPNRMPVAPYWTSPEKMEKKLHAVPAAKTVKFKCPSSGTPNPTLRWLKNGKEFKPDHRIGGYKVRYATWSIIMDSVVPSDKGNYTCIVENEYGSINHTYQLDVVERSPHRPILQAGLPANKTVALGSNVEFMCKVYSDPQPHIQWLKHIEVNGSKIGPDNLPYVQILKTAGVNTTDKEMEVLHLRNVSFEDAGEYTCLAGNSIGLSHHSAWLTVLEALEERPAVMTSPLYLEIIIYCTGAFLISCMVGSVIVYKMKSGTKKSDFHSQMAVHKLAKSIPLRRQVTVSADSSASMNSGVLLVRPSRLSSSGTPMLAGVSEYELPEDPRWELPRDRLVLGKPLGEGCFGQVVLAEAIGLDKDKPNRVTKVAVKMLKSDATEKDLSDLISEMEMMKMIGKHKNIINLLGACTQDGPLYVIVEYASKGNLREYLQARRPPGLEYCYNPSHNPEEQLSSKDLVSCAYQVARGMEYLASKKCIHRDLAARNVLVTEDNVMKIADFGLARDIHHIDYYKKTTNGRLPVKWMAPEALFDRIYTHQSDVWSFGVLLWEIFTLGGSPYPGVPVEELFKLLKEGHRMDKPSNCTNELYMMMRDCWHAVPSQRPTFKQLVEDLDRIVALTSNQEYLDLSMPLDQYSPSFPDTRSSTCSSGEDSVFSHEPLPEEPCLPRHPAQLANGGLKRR
CK1δ, sequence (P48730 whole entry): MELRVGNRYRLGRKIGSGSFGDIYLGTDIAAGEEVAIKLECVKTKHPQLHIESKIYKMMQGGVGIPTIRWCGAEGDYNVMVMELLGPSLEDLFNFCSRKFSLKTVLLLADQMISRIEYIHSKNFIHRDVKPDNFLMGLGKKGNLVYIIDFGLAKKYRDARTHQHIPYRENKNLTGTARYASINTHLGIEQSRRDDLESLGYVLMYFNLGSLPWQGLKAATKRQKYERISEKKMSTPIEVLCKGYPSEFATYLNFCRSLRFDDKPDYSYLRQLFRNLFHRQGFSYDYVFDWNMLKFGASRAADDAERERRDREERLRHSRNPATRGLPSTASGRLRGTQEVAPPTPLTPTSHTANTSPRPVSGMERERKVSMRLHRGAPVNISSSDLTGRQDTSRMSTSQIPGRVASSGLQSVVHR
LYN, sequence (P07948 whole entry, species assumed): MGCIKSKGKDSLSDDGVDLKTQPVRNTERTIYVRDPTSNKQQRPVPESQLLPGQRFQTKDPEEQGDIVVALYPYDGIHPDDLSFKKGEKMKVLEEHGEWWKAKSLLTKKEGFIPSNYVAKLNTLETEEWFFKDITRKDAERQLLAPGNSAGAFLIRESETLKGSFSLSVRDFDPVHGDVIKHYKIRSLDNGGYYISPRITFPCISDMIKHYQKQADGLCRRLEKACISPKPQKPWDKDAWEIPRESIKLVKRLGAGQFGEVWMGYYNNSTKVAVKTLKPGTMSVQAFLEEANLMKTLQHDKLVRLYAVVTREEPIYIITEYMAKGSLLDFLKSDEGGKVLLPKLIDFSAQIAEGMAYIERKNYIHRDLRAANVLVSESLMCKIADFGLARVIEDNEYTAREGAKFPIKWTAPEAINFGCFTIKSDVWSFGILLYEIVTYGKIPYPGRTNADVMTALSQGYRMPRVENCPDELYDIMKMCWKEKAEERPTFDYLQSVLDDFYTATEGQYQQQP
JNK2, sequence (P45984 whole entry, species assumed): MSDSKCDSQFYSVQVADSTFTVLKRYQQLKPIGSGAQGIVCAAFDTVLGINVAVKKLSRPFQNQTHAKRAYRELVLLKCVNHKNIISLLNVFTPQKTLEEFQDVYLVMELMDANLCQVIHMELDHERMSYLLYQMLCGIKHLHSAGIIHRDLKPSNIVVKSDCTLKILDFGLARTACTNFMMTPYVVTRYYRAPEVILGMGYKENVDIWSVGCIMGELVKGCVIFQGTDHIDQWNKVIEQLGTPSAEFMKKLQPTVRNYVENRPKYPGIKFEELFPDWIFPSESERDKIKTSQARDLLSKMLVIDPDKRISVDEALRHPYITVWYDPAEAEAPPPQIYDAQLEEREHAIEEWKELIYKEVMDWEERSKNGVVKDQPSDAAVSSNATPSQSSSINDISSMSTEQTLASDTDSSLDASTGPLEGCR
PIM1, sequence (P11309 whole entry): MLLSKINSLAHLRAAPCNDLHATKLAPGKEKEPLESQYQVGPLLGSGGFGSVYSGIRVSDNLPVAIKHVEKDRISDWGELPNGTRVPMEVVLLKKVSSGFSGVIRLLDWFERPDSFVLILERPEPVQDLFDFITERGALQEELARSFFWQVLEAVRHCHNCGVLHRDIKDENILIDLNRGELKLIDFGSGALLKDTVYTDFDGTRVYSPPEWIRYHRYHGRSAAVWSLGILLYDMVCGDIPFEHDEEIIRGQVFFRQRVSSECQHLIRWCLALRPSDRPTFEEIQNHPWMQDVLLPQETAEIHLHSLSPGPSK

Question: `CC(C)c1ccc(C=C2SC(=O)NC2=O)cc1` [5-(4-iso-propylbenzylidene)thiazolidine-2,4-dione] was tested. Which inhibition at 5 µM (ABL) did it give?
Answer: The inhibition at 5 µM was 6%.

Question: What about the inhibition at 5 µM (AKT1) of the same compound?
Answer: Its inhibition at 5 µM is 6%.

Question: What about the inhibition at 5 µM (AKT2) of the same compound?
Answer: Its inhibition at 5 µM is -1%.

Question: What about the inhibition at 5 µM (BTK) of the same compound?
Answer: The inhibition at 5 µM was 7%.

Question: What about the inhibition at 5 µM (CDK2) of the same compound?
Answer: Its inhibition at 5 µM is -2%.

Question: What about the inhibition at 5 µM (CHK1) of the same compound?
Answer: Its inhibition at 5 µM is -20%.

Question: And the inhibition at 5 µM (CK1δ)?
Answer: The inhibition at 5 µM was 7%.

Question: And the inhibition at 5 µM (c-TAK1)?
Answer: The inhibition at 5 µM was 0%.

Question: What about the inhibition at 5 µM (EGFR) of the same compound?
Answer: Its inhibition at 5 µM is -3%.

Question: What about the inhibition at 5 µM (FGFR1) of the same compound?
Answer: Its inhibition at 5 µM is 1%.

Question: What about the inhibition at 5 µM (FLT3) of the same compound?
Answer: The inhibition at 5 µM was 1%.

Question: What about the inhibition at 5 µM (FLT3(D835Y)) of the same compound?
Answer: The inhibition at 5 µM was 9%.

Question: And the inhibition at 5 µM (FYN)?
Answer: Its inhibition at 5 µM is 0%.

Question: And the inhibition at 5 µM (INSR)?
Answer: Its inhibition at 5 µM is 4%.

Question: What about the inhibition at 5 µM (JNK2) of the same compound?
Answer: Its inhibition at 5 µM is 14%.

Question: What about the inhibition at 5 µM (KDR) of the same compound?
Answer: The inhibition at 5 µM was -4%.

Question: What about the inhibition at 5 µM (LCK) of the same compound?
Answer: The inhibition at 5 µM was 3%.

Question: And the inhibition at 5 µM (LYN)?
Answer: Its inhibition at 5 µM is 8%.

Question: What about the inhibition at 5 µM (MAPKAPK2) of the same compound?
Answer: The inhibition at 5 µM was 5%.

Question: What about the inhibition at 5 µM (MARK1) of the same compound?
Answer: The inhibition at 5 µM was -6%.

Question: What about the inhibition at 5 µM (MET) of the same compound?
Answer: The inhibition at 5 µM was -6%.

Question: What about the inhibition at 5 µM (MSK1) of the same compound?
Answer: The inhibition at 5 µM was -1%.

Question: What about the inhibition at 5 µM (MST2) of the same compound?
Answer: The inhibition at 5 µM was 1%.

Question: What about the inhibition at 5 µM (PDGFRα) of the same compound?
Answer: The inhibition at 5 µM was 6%.

Question: And the inhibition at 5 µM (PDK1)?
Answer: The inhibition at 5 µM was 1%.

Question: What about the inhibition at 5 µM (PIM1) of the same compound?
Answer: The inhibition at 5 µM was 36%.

Question: And the inhibition at 5 µM (PKA)?
Answer: The inhibition at 5 µM was 3%.

Question: And the inhibition at 5 µM (PKD2)?
Answer: The inhibition at 5 µM was -3%.

Question: What about the inhibition at 5 µM (PKGα) of the same compound?
Answer: The inhibition at 5 µM was 0%.

Question: And the inhibition at 5 µM (PLK1)?
Answer: The inhibition at 5 µM was 9%.

Question: And the inhibition at 5 µM (PRAK)?
Answer: Its inhibition at 5 µM is 4%.

Question: And the inhibition at 5 µM (ROCK2)?
Answer: The inhibition at 5 µM was 5%.

Question: And the inhibition at 5 µM (RSK1)?
Answer: Its inhibition at 5 µM is 5%.

Question: And the inhibition at 5 µM (SYK)?
Answer: Its inhibition at 5 µM is -3%.

From patent US20110263664A1, “Inhibitors of PIM-1 Protein Kinases, Compositions and Methods for Treating Prostate Cancer” (MUSC FOUNDATION FOR RESEARCH DEVELOPMENT, priority 2007, published 2011)
